For 26 compounds, IC50 results are on record in patent US7205295B2, “Benzoxazin-3-ones and derivatives thereof as therapeutic agents” (Warner-Lambert Company LLC, priority 2002, dated 2007).

In general, IC50 refers to the point on the concentration scale where inhibition reaches its midpoint.

In the experiment the target is T1, PI3Kγ (p101/p110γ protein) (Homo sapiens, UniProt P48736).
T1 construct: HA; made in house; host or cells: Spodoptera frugiperda (Sf9) cells, baculovirus co-infection
T1 sequence (P48736 whole entry, species assumed): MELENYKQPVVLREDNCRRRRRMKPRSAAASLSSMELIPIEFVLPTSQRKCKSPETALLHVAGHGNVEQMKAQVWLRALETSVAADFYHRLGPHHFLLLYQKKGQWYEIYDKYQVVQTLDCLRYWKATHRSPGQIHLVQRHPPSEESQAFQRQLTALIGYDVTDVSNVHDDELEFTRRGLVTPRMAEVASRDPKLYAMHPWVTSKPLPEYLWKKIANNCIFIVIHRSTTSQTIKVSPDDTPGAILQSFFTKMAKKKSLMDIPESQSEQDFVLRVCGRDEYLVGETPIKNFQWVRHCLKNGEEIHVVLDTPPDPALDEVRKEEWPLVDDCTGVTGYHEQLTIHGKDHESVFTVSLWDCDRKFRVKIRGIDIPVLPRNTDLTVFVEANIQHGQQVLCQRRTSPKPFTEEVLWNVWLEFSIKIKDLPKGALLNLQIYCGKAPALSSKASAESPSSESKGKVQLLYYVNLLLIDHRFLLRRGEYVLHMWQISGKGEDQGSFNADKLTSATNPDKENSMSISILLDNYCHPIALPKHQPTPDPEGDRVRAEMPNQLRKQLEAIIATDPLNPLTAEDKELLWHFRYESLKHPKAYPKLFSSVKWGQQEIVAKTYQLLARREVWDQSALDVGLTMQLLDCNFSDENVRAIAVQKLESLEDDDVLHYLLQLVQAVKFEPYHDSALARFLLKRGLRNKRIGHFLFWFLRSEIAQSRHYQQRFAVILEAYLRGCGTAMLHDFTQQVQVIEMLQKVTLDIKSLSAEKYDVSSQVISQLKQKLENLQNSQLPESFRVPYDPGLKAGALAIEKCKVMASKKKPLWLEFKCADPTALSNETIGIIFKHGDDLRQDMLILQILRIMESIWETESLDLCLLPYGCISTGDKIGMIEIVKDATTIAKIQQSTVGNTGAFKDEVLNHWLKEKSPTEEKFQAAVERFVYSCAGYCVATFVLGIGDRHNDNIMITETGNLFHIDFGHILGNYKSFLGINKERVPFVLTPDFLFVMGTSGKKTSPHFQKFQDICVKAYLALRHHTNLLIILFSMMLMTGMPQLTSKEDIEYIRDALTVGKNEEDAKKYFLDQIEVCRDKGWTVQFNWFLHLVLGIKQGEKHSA
T1 sequence (Q8WYR1 whole entry partner, species assumed): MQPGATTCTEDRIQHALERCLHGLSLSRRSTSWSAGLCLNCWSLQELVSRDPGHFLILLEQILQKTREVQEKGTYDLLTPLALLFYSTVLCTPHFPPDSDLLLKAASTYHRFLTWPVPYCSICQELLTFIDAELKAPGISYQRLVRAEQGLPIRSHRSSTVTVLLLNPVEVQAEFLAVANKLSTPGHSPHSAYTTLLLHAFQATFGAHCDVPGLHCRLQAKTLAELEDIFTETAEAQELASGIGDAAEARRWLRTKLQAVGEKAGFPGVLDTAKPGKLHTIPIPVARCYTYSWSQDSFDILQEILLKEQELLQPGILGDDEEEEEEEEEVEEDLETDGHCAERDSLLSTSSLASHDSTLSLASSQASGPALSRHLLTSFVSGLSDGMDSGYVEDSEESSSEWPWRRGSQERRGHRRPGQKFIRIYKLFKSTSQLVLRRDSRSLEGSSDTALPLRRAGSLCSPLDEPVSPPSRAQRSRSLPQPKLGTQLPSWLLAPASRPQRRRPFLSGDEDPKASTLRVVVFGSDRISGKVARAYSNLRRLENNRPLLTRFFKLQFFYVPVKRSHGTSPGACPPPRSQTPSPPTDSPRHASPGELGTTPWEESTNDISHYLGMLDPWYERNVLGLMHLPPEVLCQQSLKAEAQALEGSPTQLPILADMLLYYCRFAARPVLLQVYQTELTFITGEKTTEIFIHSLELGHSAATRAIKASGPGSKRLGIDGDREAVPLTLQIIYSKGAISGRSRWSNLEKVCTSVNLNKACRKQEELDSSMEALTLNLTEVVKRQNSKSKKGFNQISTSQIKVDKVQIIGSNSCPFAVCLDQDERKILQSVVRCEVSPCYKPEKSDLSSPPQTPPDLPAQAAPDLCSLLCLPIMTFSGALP
Briefly: PI3Kγ In Vitro Kinase Assay. The format is biochemical. The conditions noted are these: purified recombinant p101/p110γ with G protein β1/γ2 subunits; 20 μM ATP, 25 μM PIP2; 20 minutes at room temperature. The procedure:
Spodtera frugiperda cells, grown in ESF921 media, were coinfected with baculovirus expressing a glu-tagged p101 and baculovirus expressing an HA-tagged p110γ, at a 3:1 ratio of p101 baculovirus to p110γ baculovirus. Sf9 cells were grown to 1×10^7 total cells/mL in 10L bioreactors and harvested 48-72 hours post infection. Samples of infected cells were then tested for expression of p101/p110γ PI3 kinase by immunoprecipitation and Western Blot analysis methods (see below). […] NaCl was added to 150 mM, and sodium cholate was added to 1% and mixed for another 45 minutes. The lysates were clarified by centrifugation for 25 minutes at 14,000 rpm. The lysates were then loaded over anti-glu-linked Protein-G Sepaharose beads (Covance Research Products, Richmond, Calif.) using 20 mL resin/50 g cell paste. […] PI3Kγ was eluted with 6 column volumes of wash buffer that contain 100 μg/mL of a peptide that competes for binding of the glu tag. […] The fractions were stored at -80° C. until further use. Spodtera frugiperda cells were coinfected with baculovirus expressing a glu-tagged G protein β1 and baculovirus expressing a G protein […] at a 1:1 ratio of glu-tagged G protein β1 baculovirus to G protein β2 baculovirus. Sf9 cells are grown in 10 L bioreactors and harvested 48-72 hours post infection. Samples of infected cells were tested for G protein β1/β2 expression by Western Blot analysis, as described below. Cell lysates were homogenized and loaded onto a column of glu-tagged beads as in Biological Example 1 and competed off the column with a glu peptide as described in Biological Example 1. The inhibitory properties of the compounds in Table 1 were assayed in an in vitro PI3K assay. In a 96-well polypropylene plate, each well was spotted with 2 μL of […] the desired final concentration of compound in DMSO. Purified recombinant p101/p110γ protein (0.03 μg; 2.7 nM) and G protein β1/γ2 subunits (0.09 μg; 57.7 nM) for each reaction was combined in the assay buffer (30 mM HEPES, 100 mM NaCl, 1 mM EGTA, and 1 mM DTT). ATP and [γ-^32P-ATP] (0.09 μCi) were added to this mixture so that the final ATP concentration in the reaction was 20 μM. Lipid micelles were formed by sonicating phosphatidylinositol-4,5-diphosphate (PIP2), phosphatidylethanolamine (PE), and Na-cholate in the assay buffer for 10 minutes, adding MgCL2 and incubating on ice for 20 minutes, for final concentrations of 25 μM PIP2, 300 [M PE, 0.02% Na-cholate, and 10 mM MgCl2 in the reaction. The reactions were started by adding equal volumes lipid and enzyme mixture in a total volume of 50 μL, allowed to run for 20 minutes at room temperature, and stopped with 100 μL 75 mM H3PO4. The lipid product was transferred to a glass fiber filter plate and washed with 75 mM H3PO4 several times. The presence of radioactive lipid product (PIP3) was measured by adding Wallac Optiphase mix to each well and counting in a Wallac 1450 Trilux plate reader (PerkinElmer Life Sciences Inc., Boston, Mass. 02118).
In the case of `CC(C)(C)c1cc(CN2C(=O)COc3ccc(C=C4SC(=S)NC4=O)cc32)cc(C(=O)N2CCOCC2)c1` [Example 275, 4-[3-tert-Butyl-5-(morpholine-4-carbonyl)-benzyl]-6-(4-oxo-2-thioxo-thiazolidin-5-ylidenemethyl)-4H-1,4-benzoxazin-3-one; compound with ethane-1,2-diamine], the IC50 was 25 nM.

In the case of `Cc1cc(CN2CCN(C)CC2)cc(CN2C(=O)COc3ccc(C=C4SC(=O)NC4=O)cc32)c1` [Example 251, 5-{4-[3-Methyl-5-(4-methyl-piperazin-1-ylmethyl)-benzyl]-3-oxo-3,4-dihydro-2H-1,4-benzoxazin-6-ylmethylene}-thiazolidine-2,4-dione], the IC50 worked out at 25 nM.

As for `COc1c(CN2C(=O)COc3ccc(C=C4SC(=S)NC4=O)cc32)cccc1C(C)C` [Example 260, 4-(3-Isopropyl-2-methoxy-benzyl)-6-(4-oxo-2-thioxo-thiazolidin-5-ylidenemethyl)-4H-1,4-benzoxazin-3-one], the IC50 was 4 nM.

For `O=C1NC(=S)SC1=Cc1ccc2c(c1)N(Cc1cc(C(F)(F)F)cc(C(F)(F)F)c1)C(=O)CO2` [Example 185, 4-(3,5-Bis-trifluoromethyl-benzyl)-6-(4-oxo-2-thioxo-thiazolidin-5-ylidenemethyl)-4H-1,4-benzoxazin-3-one], the IC50 turned out to be 102 nM.

Take `O=C1NC(=O)C(=Cc2ccc3c(c2)N(Cc2ccc(F)c(Cl)c2)C(=O)CO3)S1` [Example 308, 5-[4-(3-Chloro-4-fluoro-benzyl)-3-oxo-3,4-dihydro-2H-benzo[1,4]oxazin-6-ylmethylene]-thiazolidine-2,4-dione]: the IC50 was found to be 1 nM.

Consider `CC(C)(C)c1cc(CN2C(=O)COc3ccc(C=C4SC(=O)NC4=O)cc32)cc(C(C)(C)C)c1` [Example 85, 5-[4-(3,5-Di-tert-butyl-benzyl)-3-oxo-3,4-dihydro-2H-1,4-benzoxazin-6-ylmethylene]-thiazolidine-2,4-dione], for which the IC50 came out at 21 nM.

Take `O=C1NC(=S)SC1=Cc1ccc2c(c1)N(Cc1cccc(S(=O)(=O)N3CCOCC3)c1)C(=O)CO2` [Example 257, 4-[3-(Morpholine-4-sulfonyl)-benzyl]-6-(4-oxo-2-thioxo-thiazolidin-5-ylidenemethyl)-4H-1,4-benzoxazin-3-one]: the IC50 came to 28 nM.

For the compound `CC(C)(C)c1cc(C#N)cc(CN2C(=O)COc3ccc(C=C4SC(=S)NC4=O)cc32)c1` [Example 55, 3-tert-Butyl-5-[3-oxo-6-(4-oxo-2-thioxo-thiazolidin-5-ylidenemethyl)-2,3-dihydro-1,4-benzoxazin-4-ylmethyl]-benzonitrile], the IC50 came to 9 nM.

On to `O=C1NC(=S)OC1=Cc1ccc2c(c1)N(Cc1ccc(Cl)c(Cl)c1)C(=O)CS2` [Example 199, 4-(3,4-Dichlorobenzyl)-6-(4-oxo-2-thioxo-oxazolidin-5-ylidenemethyl)-4H-benzo[1,4]thiazin-3-one], for which the IC50 is 9 nM.

In the case of `COC(=O)c1cc(C)cc(CN2C(=O)COc3ccc(C=C4SC(=S)NC4=O)cc32)c1` [Example 118], the concentration for half-maximal inhibition (IC50) was 23 nM.

On to `O=C1NC(=S)SC1=Cc1ccc2c(c1)N(Cc1cc(F)cc(C(F)(F)F)c1)C(=O)CO2` [Example 187, 4-(3-Fluoro-5-trifluoromethyl-benzyl)-6-(4-oxo-2-thioxo-thiazolidin-5-ylidenemethyl)-4H-1,4-benzoxazin-3-one], for which the IC50 came to 98 nM.

For the compound “4-(3-Chloro-4-fluoro-benzyl)-8-fluoro-6-(4-oxo-2-thioxo-thiazolidin-5-ylidenemethyl)-4H-benzo[1,4]oxazin-3-one [Example 309]”, the IC50 was 2 nM.

Consider `CC(C)(C)CCN1C(=O)COc2ccc(C=C3SC(=S)NC3=O)cc21` [Example 155, 4-(3,3-Dimethyl-butyl)-6-(4-oxo-2-thioxo-thiazolidin-5-ylidenemethyl)-4H-1,4-benzoxazin-3-one], for which the IC50 stood at 10 nM.

As to `COc1ccc(CN2C(=O)COc3ccc(C=C4SC(=S)NC4=O)cc32)cc1` [Example 182, 4-(4-Methoxy-benzyl)-6-(4-oxo-2-thioxo-thiazolidin-5-ylidenemethyl)-4H-1,4-benzoxazin-3-one], the IC50 was found to be 165 nM.

As for `O=C1NC(=S)SC1=Cc1ccc2c(c1)N(Cc1cc(Cl)nc(Cl)c1)C(=O)CO2` [Example 225, 4-(2,6-Dichloro-pyridin-4-ylmethyl)-6-(4-oxo-2-thioxo-thiazolidin-5-ylidenemethyl)-4H-1,4-benzoxazin-3-one], the IC50 was 49 nM.

In the case of `Cc1cc(C)cc(CN2C(=O)COc3c(Cl)cc(C=C4SC(=S)NC4=O)cc32)c1` [Example 67, 8-Chloro-4-(3,5-dimethyl-benzyl)-6-(4-oxo-2-thioxo-thiazolidin-5-ylidenemethyl)-4H-1,4-benzoxazin-3-one], the IC50 is 60 nM.

For the compound `O=C1NC(=S)SC1=Cc1ccc2c(c1)N(CCCOc1ccccc1)C(=O)CO2` [Example 161, 6-(4-Oxo-2-thioxo-thiazolidin-5-ylidenemethyl)-4-(3-phenoxy-propyl)-4H-1,4-benzoxazin-3-one], the IC50 is 4 nM.

In the case of `C[C@@H]1CCC[C@H](C)N1Cc1ccc(CN2C(=O)COc3ccc(C=C4SC(=S)NC4=O)cc32)cc1` [Example 27, 4-[4-((2S, 6R)-2,6-Dimethyl-piperidin-1-ylmethyl)-benzyl]-6-(4-oxo-2-thioxo-thiazolidin-5-ylidenemethyl)-4H-1,4-benzoxazin-3-one], the IC50 amounted to 3 nM.

For `O=C1COc2ccc(C=C3OC(=O)NC3=O)cc2N1` [Example 203, 5-(3-Oxo-3,4-dihydro-2H-1,4-benzoxazin-6-ylmethylene)-oxazolidine-2,4-dione], the IC50 was 175 nM.

On to `CCOC(=O)N1CCN(Cc2ccc(CN3C(=O)COc4ccc(C=C5SC(=O)NC5=O)cc43)cc2)CC1` [Example 240, 4-{4-[6-(2,4-Dioxo-thiazolidin-5-ylidenemethyl)-3-oxo-2,3-dihydro-1,4-benzoxazin-4-ylmethyl]-benzyl}-piperazine-1-carboxylic acid ethyl ester], for which the IC50 came out at 32 nM.

As for `O=C1NC(=S)SC1=Cc1ccc2c(c1)N(Cc1ccc(C(F)(F)F)cc1)C(=O)CO2` [Example 158, 6-(4-Oxo-2-thioxo-thiazolidin-5-ylidenemethyl)-4-(4-trifluoromethyl-benzyl)-4H-1,4-benzoxazin-3-one], the IC50 came out at 28 nM.

As for `O=C1NC(=S)SC1=Cc1ccc2c(c1)N(Cc1ccccc1)C(=O)CO2` [Example 4, 4-Benzyl-6-(4-oxo-2-thioxo-thiazolidin-5-ylidenemethyl)-4H-1,4-benzoxazin-3-one], the IC50 came to 23 nM.

For the compound `O=C1NC(=S)SC1=Cc1ccc2c(c1)N(Cc1ccsc1)C(=O)CO2` [Example 146, 6-(4-Oxo-2-thioxo-thiazolidin-5-ylidenemethyl)-4-thiophen-3-ylmethyl-4H-benzo[1,4]oxazin-3-one], the IC50 was 30 nM.

Take `CC(C)(C)c1cccc(CN2C(=O)COc3ccc(C=C4SC(=S)NC4=O)cc32)c1` [Example 263, 4-(3-tert-Butyl-benzyl)-6-(4-oxo-2-thioxo-thiazolidin-5-ylidenemethyl)-4H-1,4-benzoxazin-3-one]: the half-maximal inhibitory concentration (IC50) is 18 nM.

On to `Cc1cc(CN2C(=O)COc3ccc(C=C4SC(=S)N(CC(=O)O)C4=O)cc32)c(C(F)(F)F)o1` [Example 321, {5-[4-(5-Methyl-2-triflouromethyl-furan-3-ylmethyl)-3-oxo-3,4-dihydro-2H-benzo[1,4]oxazin-6-ylmethylene]-4-oxo-2-thioxo-thiazolidin-3-yl}-acetic acid; Compound with ethane-1,2-diamine], for which the IC50 was 9730 nM.

Turning to `O=C1NC(=S)S/C1=C\c1ccc2c(c1)N(Cc1ccc(I)cc1)C(=O)CO2` [Example 287, 4-(4-Iodo-benzyl)-6-[4-oxo-2-thioxo-thiazolidin-(5Z)-ylidenemethyl]-4H-benzo[1,4]oxazin-3-one], the IC50 stood at 16 nM.
